Patent publication US10952999B2, “Inhibitor of cyclin-dependent kinase CDK9” (GENFLEET THERAPEUTICS (SHANGHAI) INC., priority 2017, dated 2021)

Columns and labels:
[1] = system: MV4-11 acute granulocyte leukemia cells; assay: Human acute granulocyte leukemia MV4-11 mouse model, subcutaneous tumor; type: in vivo, mice
Experimental: 24 Bal b/c female mice, 4-6 weeks, were purchased from Shanghai Slack Laboratory Animals Co., Ltd. and kept in SPF laboratory. The drinking water and padding were aseptically treated by autoclaving. All operations were carried out under aseptic conditions. On day 0, 5×10^6MV4-11 acute granulocyte leukemia cells (purchased from ATCC) were subcutaneously injected into the left side of all mice' back. Starting on day 15, all mice were divided into four groups (6 mice per group), methyl cellulose (HKI) solvent was orally administered to the first group of mice per day; compound 1 at a dose of 10 mg/kg mice body weight was orally administered to the second group of mice per day; compound 1 at a dose of 20 mg/kg mice body weight was orally administered to the third group of mice per day; compound 1 at a dose of 30 mg/kg mice body weight was orally administered to the fourth group of mice per day. From the start of administration, the length/width of the subcutaneous tumor was measured with a vernier caliper every day, and the body weight of the mouse was recorded every day, and the effect of compound 1 on the body weight of the mouse was observed. On day 43, the mice were sacrificed, subcutaneous tumors were taken out, and tumors were weighed and compared, and then a sample of protein lysate was prepared from the tumor sample tissue for use. The trend of subcutaneous tumor growth was counted within day 16 to day 43, and the tumor volume was calculated as: length×width×width/2 mm^3.

[2] = system: phosphorylation of RNAPII, MCL-1, and c-MYC in NB-4; assay: Effect on signaling pathway downstream of CDK9; type: cell-based; conditions: NB-4, 0.03-3 μM, 2 hours
Experimental: (§1) Against four cells, acute myelocytic leukemia cell line (AML) OCI-AML-3, acute promyelocytic leukemia cell line NB-4, acute myelocytic leukemia cell line (AML) HL-60 and acute myelocytic leukemia cell line (AML) MV4-11 (all purchased from ATCC), by measuring the biochemical endpoints and functional endpoints of multiple cells, the effect of compound 1 was evaluated on CDK9 in cells and other protein kinases related to its signaling pathway, such as RNAPII, XIAP, MCL-1, c-MYC, BCL-2 and so on. […] The effect of Compound 1 on the phosphorylation of CDK9, RNAPII, XIAP, MCL-1, c-MYC, BCL-2 in these cell lines was determined (FIG. 1a-d).

[3] = system: phosphorylation of RNAPII, MCL-1, and c-MYC in MV4-11; assay: Effect on signaling pathway downstream of CDK9; type: cell-based; conditions: MV4-11, 0.03-3 μM, 2 hours
Experimental: as §1

[4] = system: phosphorylation of RNAPII, MCL-1, and c-MYC in OCI-AML-3; assay: Effect on signaling pathway downstream of CDK9; type: cell-based; conditions: OCI-AML-3, 0.03-3 μM, 2 hours
Experimental: as §1

[5] = system: phosphorylation of RNAPII, MCL-1, and c-MYC in HL-60; assay: Effect on signaling pathway downstream of CDK9; type: cell-based; conditions: HL-60, 0.03-3 μM, 2 hours
Experimental: as §1

[6] = system: acute myelocytic leukemia cell line (AML) HL-60; assay: Effect on apoptosis, Western Blot of PARP and Caspase 3 shear; type: cell-based; conditions: HL-60, 0.01-0.1 μM, 24 hours
From the text: (§2) Western Blot was used to detect the effects of drugs in different concentrations on DNA repair enzyme polyadenylation diphosphate-ribose polymerase PARP and protein shear of cysteine-containing aspartate proteolytic enzyme Caspase 3 at different time intervals.

[7] = system: acute myelocytic leukemia cell line (AML) OCI-AML-3; assay: as above; type: cell-based; conditions: OCI-AML-3, 0.01-0.1 μM, 24 hours
From the text: as §2

[8] = system: human non-small cell lung cancer cells, human small cell lung cancer cells, lung adenocarcinoma cells, and breast cancer cells; assay: Cancer cell growth, cells of cancer type other than hematological cancer as a panel; type: cell-based; conditions: lung and breast cancer cells of table 3
From the text: In the examples, we used acute myelocytic leukemia (AML) OCI-AML-3, acute promyelocytic leukemia cell line NB-4, MDS-RAEB (myelodysplastic syndrome-excess blasts type) cell line SKM-1, human leukemia cell Nomo-1, acute myeloid leukemia cell line MOLM14, acute myeloid leukemia cell line MOLM13, acute myeloid leukemia cell line MV4-11, acute myeloid leukemia cell line HL-60, acute myeloid leukemia cell line OCI-AML-2, histiocytic lymphoma U-937, acute B cell leukemia cell line MEC-1, acute B cell leukemia cell line MEC-2, acute megakaryoblastic leukemia CMK, hamster lung cell CHL, hamster ovary cell CHO, human non-small cell lung cancer cell H1975, human non-small cell lung cancer cell H358, human small cell lung cancer cell H209, human lung adenocarcinoma cell H1395, human non-small cell lung cancer cell PC-9, human lung cancer cell H3122, human non-small cell lung cancer cell H2122, human non-small cell lung cancer cell H1915, human lung adenocarcinoma cell H1355, human non-small cell lung cancer cell HCC827, human breast cancer cell MDA-MB-231, human breast cancer cell MDA-MB-468, human breast cancer cell MCF-7, human breast cancer cell T47D, human breast cancer cell SK-Br-3, the above cells were purchased from ATCC. […]

CDK9/cyclin T1 = biological target: T1, CDK9/cyclin T1 (Homo sapiens, UniProt P50750); assay: Enzyme assay for inhibition of CDK protein in vitro (Z-LYTE); type: biochemical
T1 construct: purchased Invitrogen, USA
Experimental: (§3) Compounds 1 and 14 diluted in DMSO were mixed with detected CDK protein (Invitrogen, USA) respectively, incubated at room temperature for 30 minutes; and then mixed with Kinase/Z-LYTE™ Peptide Substrate Mixture (Invitrogen, USA) and 4×ATP. The mixed system was transferred to a 384-well white opaque plate to react for 1 hour at room temperature; 5 μL of Development Solution (Invitrogen, USA) was added to react at room temperature for 1 hour, and finally Stop Reagent (Invitrogen, USA) was added to terminate the reaction and MD SpectraMax I3× microplate reader (Molecular Devices, USA) was used to read fluorescence values.

CDK7/cyclin HMNAT1 = biological target: T2, CDK7/cyclin HMNAT1 (Homo sapiens, UniProt P50613); assay: as above; type: biochemical
T2 construct: purchased Invitrogen, USA
Experimental: as §3

CDK2/cyclin A = biological target: T3, CDK2/cyclin A (Homo sapiens, UniProt P24941); assay: as above; type: biochemical
T3 construct: purchased Invitrogen, USA
Experimental: as §3

CDK1/cyclin B = biological target: T4, CDK1/cyclin B (Homo sapiens, UniProt P06493); assay: as above; type: biochemical
T4 construct: purchased Invitrogen, USA
Experimental: as §3

CDK3/cyclin E1 = biological target: T5, CDK3/cyclin E1 (Homo sapiens, UniProt Q00526); assay: as above; type: biochemical
T5 construct: purchased Invitrogen, USA
Experimental: as §3

CDK5/p25 = biological target: T6, CDK5/p25 (Homo sapiens, UniProt Q00535); assay: as above; type: biochemical
T6 construct: purchased Invitrogen, USA
Experimental: as §3

CDK14/cyclin Y = biological target: T7, CDK14/cyclin Y (Homo sapiens, UniProt O94921); assay: as above; type: biochemical
T7 construct: purchased Invitrogen, USA
Experimental: as §3

CDK8/cyclin C = biological target: T8, CDK8/cyclin C (Homo sapiens, UniProt P49336); assay: as above; type: biochemical
T8 construct: purchased Invitrogen, USA
Experimental: as §3

T2 sequence (P50613 whole entry): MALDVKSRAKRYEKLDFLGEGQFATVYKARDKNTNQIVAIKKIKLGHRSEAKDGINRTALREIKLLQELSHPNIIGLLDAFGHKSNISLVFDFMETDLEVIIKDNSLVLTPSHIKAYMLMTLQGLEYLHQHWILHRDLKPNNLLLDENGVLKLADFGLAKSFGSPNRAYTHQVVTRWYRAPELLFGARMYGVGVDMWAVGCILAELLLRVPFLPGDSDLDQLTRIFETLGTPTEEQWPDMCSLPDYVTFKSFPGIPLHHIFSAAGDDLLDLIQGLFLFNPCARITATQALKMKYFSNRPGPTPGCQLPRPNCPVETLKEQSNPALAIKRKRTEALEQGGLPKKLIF
T2 sequence (P51946 whole entry partner): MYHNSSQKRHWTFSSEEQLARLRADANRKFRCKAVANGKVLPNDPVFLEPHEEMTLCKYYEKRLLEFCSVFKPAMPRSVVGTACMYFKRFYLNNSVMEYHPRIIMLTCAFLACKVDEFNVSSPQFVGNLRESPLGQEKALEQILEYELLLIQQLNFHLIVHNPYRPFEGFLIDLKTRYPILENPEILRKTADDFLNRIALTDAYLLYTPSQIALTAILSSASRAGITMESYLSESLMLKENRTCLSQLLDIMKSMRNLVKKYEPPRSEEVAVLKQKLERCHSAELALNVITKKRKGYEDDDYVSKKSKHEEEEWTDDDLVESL
T2 sequence (P51948 whole entry partner): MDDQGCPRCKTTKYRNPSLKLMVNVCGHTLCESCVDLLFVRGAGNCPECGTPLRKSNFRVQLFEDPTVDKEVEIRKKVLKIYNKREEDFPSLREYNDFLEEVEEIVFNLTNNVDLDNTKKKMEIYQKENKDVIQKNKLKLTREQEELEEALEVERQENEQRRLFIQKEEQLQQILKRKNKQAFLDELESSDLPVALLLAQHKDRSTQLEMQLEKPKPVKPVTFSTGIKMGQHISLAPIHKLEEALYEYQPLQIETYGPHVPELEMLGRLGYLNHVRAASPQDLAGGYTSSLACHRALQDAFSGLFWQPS
T4 sequence (P06493 whole entry): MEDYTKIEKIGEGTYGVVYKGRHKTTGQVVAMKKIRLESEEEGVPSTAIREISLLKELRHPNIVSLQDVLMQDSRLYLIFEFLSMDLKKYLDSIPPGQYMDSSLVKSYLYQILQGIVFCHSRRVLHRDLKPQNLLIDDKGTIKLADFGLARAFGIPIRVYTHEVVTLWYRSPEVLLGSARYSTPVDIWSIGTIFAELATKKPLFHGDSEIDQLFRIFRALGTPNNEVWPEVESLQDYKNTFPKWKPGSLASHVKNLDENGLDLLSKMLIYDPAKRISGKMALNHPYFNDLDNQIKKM
T4 sequence (P14635 whole entry partner): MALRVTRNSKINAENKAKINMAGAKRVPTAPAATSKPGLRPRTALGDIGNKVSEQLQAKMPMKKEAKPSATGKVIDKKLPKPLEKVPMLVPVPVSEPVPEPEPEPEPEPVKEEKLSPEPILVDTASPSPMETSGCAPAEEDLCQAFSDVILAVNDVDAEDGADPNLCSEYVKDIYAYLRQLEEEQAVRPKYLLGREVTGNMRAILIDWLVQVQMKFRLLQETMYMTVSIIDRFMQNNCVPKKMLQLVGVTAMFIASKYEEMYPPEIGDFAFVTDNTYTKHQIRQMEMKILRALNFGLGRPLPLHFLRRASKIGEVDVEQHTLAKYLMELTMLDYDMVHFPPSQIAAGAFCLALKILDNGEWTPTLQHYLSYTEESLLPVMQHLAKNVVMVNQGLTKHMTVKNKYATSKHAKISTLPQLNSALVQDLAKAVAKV
T1 sequence (P50750 whole entry): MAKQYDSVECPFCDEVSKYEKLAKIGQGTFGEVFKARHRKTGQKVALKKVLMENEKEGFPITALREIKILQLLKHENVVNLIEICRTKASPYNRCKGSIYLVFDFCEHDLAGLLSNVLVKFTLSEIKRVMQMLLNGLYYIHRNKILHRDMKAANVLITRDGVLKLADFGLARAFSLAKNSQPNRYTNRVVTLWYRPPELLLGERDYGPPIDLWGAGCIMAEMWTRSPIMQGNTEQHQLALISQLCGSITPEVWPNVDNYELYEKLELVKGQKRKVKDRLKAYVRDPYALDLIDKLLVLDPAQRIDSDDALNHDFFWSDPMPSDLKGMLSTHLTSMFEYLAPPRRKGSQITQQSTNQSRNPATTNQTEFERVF
T1 sequence (O60563 whole entry partner): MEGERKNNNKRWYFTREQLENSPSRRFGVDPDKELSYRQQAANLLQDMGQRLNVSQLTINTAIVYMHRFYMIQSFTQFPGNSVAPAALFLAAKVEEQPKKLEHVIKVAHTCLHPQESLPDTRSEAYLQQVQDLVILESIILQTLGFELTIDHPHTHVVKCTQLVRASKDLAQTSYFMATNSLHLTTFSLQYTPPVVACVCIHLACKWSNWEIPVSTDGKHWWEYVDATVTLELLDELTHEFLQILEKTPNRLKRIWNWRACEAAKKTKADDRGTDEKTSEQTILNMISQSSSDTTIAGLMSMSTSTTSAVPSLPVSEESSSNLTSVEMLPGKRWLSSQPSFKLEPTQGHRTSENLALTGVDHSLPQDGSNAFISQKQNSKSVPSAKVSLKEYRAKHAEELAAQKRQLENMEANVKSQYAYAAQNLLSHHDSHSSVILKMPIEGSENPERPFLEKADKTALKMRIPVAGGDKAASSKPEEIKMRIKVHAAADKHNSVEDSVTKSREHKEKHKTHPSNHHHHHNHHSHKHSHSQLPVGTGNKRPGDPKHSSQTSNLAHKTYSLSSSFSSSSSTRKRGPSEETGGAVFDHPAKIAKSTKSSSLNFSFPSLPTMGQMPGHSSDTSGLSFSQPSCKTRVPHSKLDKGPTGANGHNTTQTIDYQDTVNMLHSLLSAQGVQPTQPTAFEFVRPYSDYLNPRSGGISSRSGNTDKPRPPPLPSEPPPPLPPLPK
T6 sequence (Q00535 whole entry): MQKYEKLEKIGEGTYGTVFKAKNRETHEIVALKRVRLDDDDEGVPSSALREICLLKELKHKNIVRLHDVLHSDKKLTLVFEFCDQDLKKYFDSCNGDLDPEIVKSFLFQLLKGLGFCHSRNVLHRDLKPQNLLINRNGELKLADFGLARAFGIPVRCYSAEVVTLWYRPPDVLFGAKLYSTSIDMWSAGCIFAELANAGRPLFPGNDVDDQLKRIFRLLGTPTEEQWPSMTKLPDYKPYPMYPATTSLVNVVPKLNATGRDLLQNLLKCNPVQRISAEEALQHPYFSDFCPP
T6 sequence (Q15078 99-307 partner limits assumed): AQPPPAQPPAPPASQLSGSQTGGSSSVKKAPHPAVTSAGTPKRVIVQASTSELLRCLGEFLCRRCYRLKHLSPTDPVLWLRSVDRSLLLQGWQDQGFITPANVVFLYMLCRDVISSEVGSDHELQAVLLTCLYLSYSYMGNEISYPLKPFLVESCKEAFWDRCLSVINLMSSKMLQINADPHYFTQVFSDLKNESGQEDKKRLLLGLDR
T5 sequence (Q00526 whole entry): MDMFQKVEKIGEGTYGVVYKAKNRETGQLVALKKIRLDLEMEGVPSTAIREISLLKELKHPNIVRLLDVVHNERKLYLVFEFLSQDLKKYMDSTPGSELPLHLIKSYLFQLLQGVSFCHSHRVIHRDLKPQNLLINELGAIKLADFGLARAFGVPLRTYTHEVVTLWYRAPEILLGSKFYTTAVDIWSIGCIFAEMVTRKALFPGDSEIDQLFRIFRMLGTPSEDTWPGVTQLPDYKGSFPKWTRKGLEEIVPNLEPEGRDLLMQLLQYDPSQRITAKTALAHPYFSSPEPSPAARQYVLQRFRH
T5 sequence (P24864 whole entry partner): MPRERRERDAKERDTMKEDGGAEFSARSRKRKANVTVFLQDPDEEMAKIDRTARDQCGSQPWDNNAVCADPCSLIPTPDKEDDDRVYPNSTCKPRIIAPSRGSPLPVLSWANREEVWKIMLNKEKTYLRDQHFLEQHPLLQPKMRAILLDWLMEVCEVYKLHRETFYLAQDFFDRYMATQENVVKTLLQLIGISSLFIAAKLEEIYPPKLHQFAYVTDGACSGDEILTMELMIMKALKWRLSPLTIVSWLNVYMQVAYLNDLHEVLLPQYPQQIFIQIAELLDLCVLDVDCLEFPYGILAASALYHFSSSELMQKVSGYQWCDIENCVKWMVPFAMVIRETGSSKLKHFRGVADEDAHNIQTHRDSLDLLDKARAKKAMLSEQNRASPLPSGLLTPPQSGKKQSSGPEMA
T7 sequence (O94921 whole entry): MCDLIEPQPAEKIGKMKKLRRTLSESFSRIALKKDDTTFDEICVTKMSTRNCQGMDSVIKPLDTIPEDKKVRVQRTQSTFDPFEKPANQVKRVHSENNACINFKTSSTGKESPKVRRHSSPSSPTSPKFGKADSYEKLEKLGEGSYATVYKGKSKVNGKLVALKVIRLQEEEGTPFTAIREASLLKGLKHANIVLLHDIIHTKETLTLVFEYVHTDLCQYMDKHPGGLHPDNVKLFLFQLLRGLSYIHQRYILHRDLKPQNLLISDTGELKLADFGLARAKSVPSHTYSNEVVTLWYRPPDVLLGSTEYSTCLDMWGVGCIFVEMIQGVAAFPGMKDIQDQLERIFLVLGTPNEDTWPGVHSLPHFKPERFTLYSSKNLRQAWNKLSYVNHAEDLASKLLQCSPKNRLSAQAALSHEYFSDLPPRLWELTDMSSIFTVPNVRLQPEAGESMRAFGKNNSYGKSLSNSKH
T7 sequence (Q8ND76 whole entry partner): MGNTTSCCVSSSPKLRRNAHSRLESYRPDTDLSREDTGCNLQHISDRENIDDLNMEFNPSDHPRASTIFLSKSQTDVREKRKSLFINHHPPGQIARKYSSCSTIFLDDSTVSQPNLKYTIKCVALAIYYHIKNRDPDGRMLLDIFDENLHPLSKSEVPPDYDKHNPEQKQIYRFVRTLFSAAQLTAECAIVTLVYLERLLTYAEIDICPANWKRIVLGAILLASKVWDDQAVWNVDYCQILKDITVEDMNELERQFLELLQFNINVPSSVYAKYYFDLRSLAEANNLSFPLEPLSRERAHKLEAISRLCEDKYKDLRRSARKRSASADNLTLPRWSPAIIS

IC50 (CDK9/cyclin T1): 0.000928 µM
IC50 (CDK7/cyclin HMNAT1): 3.7 µM
IC50 (CDK2/cyclin A): 6.85 µM
IC50 (CDK1/cyclin B): 5.41 µM
IC50 (CDK3/cyclin E1): > 10 µM
IC50 (CDK5/p25): 6.95 µM
IC50 (CDK14/cyclin Y): 2.71 µM
IC50 (CDK8/cyclin C): > 10 µM
Compound: COC[C@@H](C)N[C@H]1CC[C@H](Nc2cc(-c3csc(NCC4(C#N)CCOCC4)n3)c(Cl)cn2)CC1 [Compound 1, 4-(((4-(5-chloro-2-(((1R,4r)-4-(((R)-1-methoxypropyl-2-yl)amino)cyclohexyl)amino)pyridin-4-yl)thiazol-2-yl)amino)methyl)tetrahydro-2H-pyran-4-carbonitrile]
growth of subcutaneous tumors (in words) ([1]; 10, 20, 30 mg/kg orally per day, Bal b/c mice): effective in inhibiting the growth of subcutaneous tumors
tumor growth inhibition (TGI) ([1]; high dose group (20, 30 mg/kg), orally per day, day 15 to day 43, Bal b/c mice): 98.7%
weight of the subcutaneous tumor ([1]; low dose group (10 mg/kg), orally per day, Bal b/c mice): significantly reduced
effect on the phosphorylation of RNAPII, MCL-1, and c-MYC directly downstream of CDK9 protein [2]: significant inhibitory effect
effect on the phosphorylation of RNAPII, MCL-1, and c-MYC directly downstream of CDK9 protein [3]: significant inhibitory effect
effect on the phosphorylation of RNAPII, MCL-1, and c-MYC directly downstream of CDK9 protein [4]: significant inhibitory effect
effect on the phosphorylation of RNAPII, MCL-1, and c-MYC directly downstream of CDK9 protein [5]: significant inhibitory effect
apoptosis (shear of PARP or Caspase 3) [6]: could cause apoptosis
apoptosis (shear of PARP or Caspase 3) [7]: could cause apoptosis
inhibitory effects on cancer cells tested (in words) [8]: significant inhibitory effects
